According to patent publication US20220218852A1, “NOVEL RADIOLABELLED CXCR4-TARGETING COMPOUNDS FOR DIAGNOSIS AND THERAPY” (PROVINCIAL HEALTH SERVICES AUTHORITY, priority 2019, published 2022):
Where two headings read alike, the source gives them in different places. Positions of bridges follow the written chain, without caps; N, C: chain ends. Non-standard residues stand in square brackets, D forms with d. Residues, ends and D or L forms follow the SMILES beside them. Groups on a side chain read outwards from the residue. *: point of attachment. DOTA = O=C(O)CN1CCN(CC(=O)O)CCN(CC(=O)*)CCN(CC(=O)O)CC1; 2Nal = N[C@@H](Cc1ccc2ccccc2c1)C(=O)O; Lys(iPr) = CC(C)NCCCC[C@H](N)C(=O)O

What was measured:
Type in all cases: in vivo
[1] = Biodistribution in Z138 tumor-bearing mice; settings: male, NOD.Cg-Rag1^tm1MomII2rg^tm1Wjl/SzJ (NRG), mouse, iv, total radioactivity, Z138
Protocol: (§1) For Daudi, Z138, GRANTA519 and Jeko1 xenografts, male NOD.Cg-Rag1^tm1MomII2rg^tm1Wjl/SzJ (NRG) mice were subcutaneously inoculated on the left flank with 5×10^6 cells (100 μL; 1:1 ratio of PBS/Matrigel) and tumors were grown to a size of 200-500 mm^3. For PC-3 xenografts, male NOD.Cg-Rag1^tm1MomII2rg^tm1Wjl/SzJ (NRG) mice were subcutaneously inoculated on the left flank with 5×10^6 PC-3 cells (100 μL; 1:1 ratio of PBS/Matrigel) and tumors were grown to a size of 200-400 mm^3.
(§2) The mice were euthanized via CO2 inhalation while anesthetized with isoflurane. Tissues were harvested, washed in PBS, blotted dry, weighed, and measured on a Hidex AMG Automatic Gamma Counter.

[2] = test system: Z138 mantle cell lymphoma xenografts; assay: Biodistribution in Z138 tumor-bearing mice; settings: Z138
Protocol: as §1, §2

[3] = Biodistribution in Daudi tumor-bearing mice; settings: male, NOD.Cg-Rag1^tm1MomII2rg^tm1Wjl/SzJ (NRG), mouse, iv, total radioactivity, Daudi
Protocol: as §1, §2

[4] = test system: Daudi Burkitt's lymphoma xenografts; assay: Biodistribution in Daudi tumor-bearing mice; settings: Daudi
Protocol: as §1, §2

[5] = blood, 1 h, read-out: Biodistribution Blood
[6] = blood, 1 h blocked (7.5 μg LY2510924 i.p.), read-out: Biodistribution Blood
[7] = fat, 1 h, read-out: Biodistribution Fat
[8] = fat, 1 h blocked (7.5 μg LY2510924 i.p.), read-out: Biodistribution Fat
[9] = 1 h blocked (7.5 μg LY2510924 i.p.)

Compound CC(C)NCCCC[C@@H]1NC(=O)[C@H](Cc2ccc(O)cc2)NC(=O)[C@H](Cc2ccccc2)NC(=O)CC[C@H](C(=O)N[C@@H](CCCCNC(C)C)C(=O)N[C@@H](CCCCNC(=O)[C@H](CCC(=O)O)NC(=O)[C@H](CCC(=O)O)NC(=O)[C@H](CCC(=O)O)NC(=O)CN2CCN(CC(=O)O)CCN(CC(=O)O)CCN(CC(=O)O)CC2)C(N)=O)NC(=O)CNC(=O)[C@H](Cc2ccc3ccccc3c2)NC(=O)[C@@H](CCCNC(=N)N)NC1=O [[^68Ga]Ga-BL02, metal not drawn] (FY[Lys(iPr)][dR][2Nal]G[dE][Lys(iPr)]K([Glu-Glu-Glu-DOTA])-NH2; lactam N-7) has a tissue uptake at 1 h ([1]; Z138 tumor, 1 h, read-out: Biodistribution Z138 (tumor)) of 12.9 %ID/g, a tissue uptake at 1 h ([1]; Z138 tumor, 1 h blocked (7.5 μg LY2510924 i.p.), read-out: Biodistribution Z138 (tumor)) of 2.86 %ID/g and a tissue uptake at 1 h ([1]; adrenals, 1 h, read-out: Biodistribution Adrenals) of 0.14 %ID/g. It also gave a tissue uptake at 1 h ([1]; adrenals, 1 h blocked (7.5 μg LY2510924 i.p.), read-out: Biodistribution Adrenals) of 0.59 %ID/g, a tissue uptake at 1 h [1, 5] of 0.3 %ID/g and a tissue uptake at 1 h [1, 6] of 0.83 %ID/g. For the same compound, the tissue uptake at 1 h ([1]; bone, 1 h, read-out: Biodistribution Bone) was 0.08 %ID/g, the tissue uptake at 1 h ([1]; bone, 1 h blocked (7.5 μg LY2510924 i.p.), read-out: Biodistribution Bone) was 0.2 %ID/g and the tissue uptake at 1 h ([1]; brain, 1 h, read-out: Biodistribution Brain) was 0.01 %ID/g. For the same compound, the tissue uptake at 1 h ([1]; brain, 1 h blocked (7.5 μg LY2510924 i.p.), read-out: Biodistribution Brain) was 0.02 %ID/g, the tissue uptake at 1 h [1, 7] was 0.04 %ID/g and the tissue uptake at 1 h [1, 8] was 0.14 %ID/g. For the same compound, the tissue uptake at 1 h ([1]; heart, 1 h, read-out: Biodistribution Heart) was 0.11 %ID/g, the tissue uptake at 1 h ([1]; heart, 1 h blocked (7.5 μg LY2510924 i.p.), read-out: Biodistribution Heart) was 0.24 %ID/g and the tissue uptake at 1 h ([1]; intestine, 1 h, read-out: Biodistribution Intestine) was 0.19 %ID/g. It also gave a tissue uptake at 1 h ([1]; intestine, 1 h blocked (7.5 μg LY2510924 i.p.), read-out: Biodistribution Intestine) of 0.61 %ID/g, a tissue uptake at 1 h ([1]; kidney, 1 h, read-out: Biodistribution Kidney) of 3.48 %ID/g and a tissue uptake at 1 h ([1]; kidney, 1 h blocked (7.5 μg LY2510924 i.p.), read-out: Biodistribution Kidney) of 7.86 %ID/g. The tissue uptake at 1 h ([1]; liver, 1 h, read-out: Biodistribution Liver) was 0.48 %ID/g, the tissue uptake at 1 h ([1]; liver, 1 h blocked (7.5 μg LY2510924 i.p.), read-out: Biodistribution Liver) was 0.55 %ID/g and the tissue uptake at 1 h ([1]; lung, 1 h, read-out: Biodistribution Lung) was 0.5 %ID/g. The tissue uptake at 1 h ([1]; lung, 1 h blocked (7.5 μg LY2510924 i.p.), read-out: Biodistribution Lung) was 0.85 %ID/g, the tissue uptake at 1 h ([1]; muscle, 1 h, read-out: Biodistribution Muscle) was 0.05 %ID/g and the tissue uptake at 1 h ([1]; muscle, 1 h blocked (7.5 μg LY2510924 i.p.), read-out: Biodistribution Muscle) was 0.15 %ID/g. The tissue uptake at 1 h ([1]; pancreas, 1 h, read-out: Biodistribution Pancreas) was 0.08 %ID/g, the tissue uptake at 1 h ([1]; pancreas, 1 h blocked (7.5 μg LY2510924 i.p.), read-out: Biodistribution Pancreas) was 0.21 %ID/g and the tissue uptake at 1 h ([1]; spleen, 1 h, read-out: Biodistribution Spleen) was 0.33 %ID/g. It also gave a tissue uptake at 1 h ([1]; spleen, 1 h blocked (7.5 μg LY2510924 i.p.), read-out: Biodistribution Spleen) of 0.43 %ID/g, a tissue uptake at 1 h ([1]; stomach, 1 h, read-out: Biodistribution Stomach) of 0.07 %ID/g and a tissue uptake at 1 h ([1]; stomach, 1 h blocked (7.5 μg LY2510924 i.p.), read-out: Biodistribution Stomach) of 0.16 %ID/g. The tissue uptake at 1 h ([1]; testes, 1 h, read-out: Biodistribution Testes) was 0.11 %ID/g, the tissue uptake at 1 h ([1]; testes, 1 h blocked (7.5 μg LY2510924 i.p.), read-out: Biodistribution Testes) was 0.26 %ID/g and the “Ratio Tumor: Blood” value ([2]; 1 h) was 43.12. The “Ratio Tumor: Bone” value ([2]; 1 h) was 163.06, the “Ratio Tumor: Liver” value ([2]; 1 h) was 26.89 and the “Ratio Tumor: Lung” value ([2]; 1 h) was 26.39. The “Ratio Tumor: Muscle” value ([2]; 1 h) was 240.96, the “Ratio Tumor: Spleen” value ([2]; 1 h) was 39.22 and the “Ratio Tumor: Blood” value [2, 9] was 3.94. The “Ratio Tumor: Bone” value [2, 9] was 19.08, the “Ratio Tumor: Liver” value [2, 9] was 5.23 and the “Ratio Tumor: Lung” value [2, 9] was 3.65. The “Ratio Tumor: Muscle” value [2, 9] was 21.59, the “Ratio Tumor: Spleen” value [2, 9] was 7.40 and the tissue uptake at 1 h [3, 5] was 0.31 %ID/g. For the same compound, the tissue uptake at 1 h [3, 6] was 0.5 %ID/g, the tissue uptake at 2 h ([3]; blood, read-out: Biodistribution Blood) was 0.08 %ID/g and the tissue uptake at 1 h [3, 7] was 0.05 %ID/g. It also gave a tissue uptake at 1 h [3, 8] of 0.07 %ID/g, a tissue uptake at 2 h ([3]; fat, read-out: Biodistribution Fat) of 0.02 %ID/g and a tissue uptake at 1 h ([3]; tumor, 1 h blocked (7.5 μg LY2510924 i.p.), read-out: Biodistribution Daudi (tumor)) of 0.8 %ID/g. The tissue uptake at 2 h ([3]; tumor, read-out: Biodistribution Daudi (tumor)) was 7.78 %ID/g, the “Biodistribution Adrenals” value ([4]; 1 h) was 0.36 % ID/g and the “Biodistribution Bone” value ([4]; 1 h) was 0.19 % ID/g. The “Biodistribution Brain” value ([4]; 1 h) was 0.02 % ID/g, the “Biodistribution Daudi (tumor)” value ([4]; 1 h) was 8.52 % ID/g and the “Biodistribution Heart” value ([4]; 1 h) was 0.13 % ID/g. The “Biodistribution Intestine” value ([4]; 1 h) was 0.22 % ID/g, the “Biodistribution Kidney” value ([4]; 1 h) was 4.18 % ID/g and the “Biodistribution Liver” value ([4]; 1 h) was 0.59 % ID/g. For the same compound, the “Biodistribution Lung” value ([4]; 1 h) was 0.48 % ID/g, the “Biodistribution Muscle” value ([4]; 1 h) was 0.10 % ID/g and the “Biodistribution Pancreas” value ([4]; 1 h) was 0.18 % ID/g. For the same compound, the “Biodistribution Spleen” value ([4]; 1 h) was 0.53 % ID/g, the “Biodistribution Stomach” value ([4]; 1 h) was 0.07 % ID/g and the “Biodistribution Testes” value ([4]; 1 h) was 0.11 % ID/g. The “Ratio Tumor: Blood” value ([4]; 1 h) was 30.57, the “Ratio Tumor: Bone” value ([4]; 1 h) was 48.04 and the “Ratio Tumor: Liver” value ([4]; 1 h) was 14.30. For the same compound, the “Ratio Tumor: Lung” value ([4]; 1 h) was 18.07, the “Ratio Tumor: Muscle” value ([4]; 1 h) was 80.77 and the “Ratio Tumor: Spleen” value ([4]; 1 h) was 17.18. For the same compound, the “Biodistribution Adrenals” value [4, 9] was 0.32 % ID/g, the “Biodistribution Bone” value [4, 9] was 0.20 % ID/g and the “Biodistribution Brain” value [4, 9] was 0.02 % ID/g. For the same compound, the “Biodistribution Heart” value [4, 9] was 0.14 % ID/g, the “Biodistribution Intestine” value [4, 9] was 0.31 % ID/g and the “Biodistribution Kidney” value [4, 9] was 4.63 % ID/g. The “Biodistribution Liver” value [4, 9] was 0.55 % ID/g, the “Biodistribution Lung” value [4, 9] was 0.58 % ID/g and the “Biodistribution Muscle” value [4, 9] was 0.09 % ID/g. The “Biodistribution Pancreas” value [4, 9] was 0.12 % ID/g, the “Biodistribution Spleen” value [4, 9] was 0.23 % ID/g and the “Biodistribution Stomach” value [4, 9] was 0.07 % ID/g. The “Biodistribution Testes” value [4, 9] was 0.15 % ID/g, the “Ratio Tumor: Blood” value [4, 9] was 1.71 and the “Ratio Tumor: Bone” value [4, 9] was 4.44. The “Ratio Tumor: Liver” value [4, 9] was 1.47, the “Ratio Tumor: Lung” value [4, 9] was 1.43 and the “Ratio Tumor: Muscle” value [4, 9] was 9.23. The “Ratio Tumor: Spleen” value [4, 9] was 3.57, the “Biodistribution Adrenals” value ([4]; 2 h) was 0.21 % ID/g and the “Biodistribution Bone” value ([4]; 2 h) was 0.09 % ID/g. The “Biodistribution Brain” value ([4]; 2 h) was 0.01 % ID/g, the “Biodistribution Heart” value ([4]; 2 h) was 0.05 % ID/g and the “Biodistribution Intestine” value ([4]; 2 h) was 0.12 % ID/g. For the same compound, the “Biodistribution Kidney” value ([4]; 2 h) was 3.40 % ID/g, the “Biodistribution Liver” value ([4]; 2 h) was 0.54 % ID/g and the “Biodistribution Lung” value ([4]; 2 h) was 0.27 % ID/g. The “Biodistribution Muscle” value ([4]; 2 h) was 0.04 % ID/g, the “Biodistribution Pancreas” value ([4]; 2 h) was 0.05 % ID/g and the “Biodistribution Spleen” value ([4]; 2 h) was 0.24 % ID/g. For the same compound, the “Biodistribution Stomach” value ([4]; 2 h) was 0.07 % ID/g, the “Biodistribution Testes” value ([4]; 2 h) was 0.05 % ID/g and the “Ratio Tumor: Blood” value ([4]; 2 h) was 114.6. For the same compound, the “Ratio Tumor: Bone” value ([4]; 2 h) was 87.81, the “Ratio Tumor: Liver” value ([4]; 2 h) was 14.47 and the “Ratio Tumor: Lung” value ([4]; 2 h) was 31.68. For the same compound, the “Ratio Tumor: Muscle” value ([4]; 2 h) was 216.0 and the “Ratio Tumor: Spleen” value ([4]; 2 h) was 36.06.
